Key:
Format in all cases: cell-based, C57BL/6 mice
islets [1] = test: Islet mitochondrial hyperpolarization by Rhodamine 123 fluorescence
Description: The effects of hypoxia and intermittent hypoxia preconditioning on calcium were paralleled by changes in insulin secretion and mitochondrial potential, as measured by off-chip insulin ELISA and Rhodamine 123 fluorescence, respectively. Insulin fractions were collected at 1 minute intervals during flow, with a stop-flow incubation period during the glucose exposure, as shown in FIG. 10A. The hypoxic pulse rendered insulin response down to basal levels (even drifting below baseline) while preconditioning improved insulin to 85% of normoxia while exposed to hypoxia. However, all insulin samples were collected in the same manner to account for this issue. Mitochondria hyperpolarization, monitored with Rhodamine uptake and self-quenching, was improved with IH preconditioning compared to hypoxia exposure alone. […] Islets were incubated in 100 μM diazoxide for 10 minutes and washed in Krebs buffer for 10 minutes prior to hypoxia and glucose stimulation. […] Both mitochondrial hyperpolarization and insulin secretion were improved with diazoxide compared to IH+5HD, as shown in FIG. 10B. […] All fluids perfused through the MIIH device were prepared in Krebs Ringer bicarbonate buffer: 129 mM NaCl, 5 mM NaHCO3, 4.7 mM KCl, 1.2 mM KH2PO4, 1 mM CaCl2.2H2O, 1.2 mM MgSO4.7H2O, 10 mM HEPES pH 7.35-7.40. […] FURA was excited at 340 and 380 nm and measured at 510 nm while Rho123 was excited at 495 nm and measured at 530 nm FURA measurements were expressed as a ratio of 340 nm over 380 nm intensities. […] The data was then normalized against the standard normoxic pulse to minimize variation between experiments and the results were expressed as “FURA Ratio %”. Rho123 measurement and the associated hyperpolarization drop were also analyzed similarly by normalizing against a normoxic standard. The insulin ELISA timepoints, measured in ng/mL, was expressed as an index of the maximum value over the baseline average to account for the stop flow during glucose/hypoxic incubation and also varying number of islets in the experiments. […]

islets [2] = test: Islet insulin secretion, off-chip insulin ELISA
Description: The effects of hypoxia and intermittent hypoxia preconditioning on calcium were paralleled by changes in insulin secretion and mitochondrial potential, as measured by off-chip insulin ELISA and Rhodamine 123 fluorescence, respectively. Insulin fractions were collected at 1 minute intervals during flow, with a stop-flow incubation period during the glucose exposure, as shown in FIG. 10A. The hypoxic pulse rendered insulin response down to basal levels (even drifting below baseline) while preconditioning improved insulin to 85% of normoxia while exposed to hypoxia. However, all insulin samples were collected in the same manner to account for this issue. Mitochondria hyperpolarization, monitored with Rhodamine uptake and self-quenching, was improved with IH preconditioning compared to hypoxia exposure alone. […] Islets were incubated in 100 μM diazoxide for 10 minutes and washed in Krebs buffer for 10 minutes prior to hypoxia and glucose stimulation. […] Both mitochondrial hyperpolarization and insulin secretion were improved with diazoxide compared to IH+5HD, as shown in FIG. 10B. […] Glucose and Krebs buffer flow were only introduced while washing or stimulating the islets, and flow was stopped at all other times. […] The plates were read in a Biotek Synergy 2 plate reader. […] FURA was excited at 340 and 380 nm and measured at 510 nm while Rho123 was excited at 495 nm and measured at 530 nm FURA measurements were expressed as a ratio of 340 nm over 380 nm intensities. […] The data was then normalized against the standard normoxic pulse to minimize variation between experiments and the results were expressed as “FURA Ratio %”. Rho123 measurement and the associated hyperpolarization drop were also analyzed similarly by normalizing against a normoxic standard. The insulin ELISA timepoints, measured in ng/mL, was expressed as an index of the maximum value over the baseline average to account for the stop flow during glucose/hypoxic incubation and also varying number of islets in the experiments. […]

islets [3] = test: Islet glucose-stimulated calcium response (FURA ratio) under hypoxia in microfluidic device
Description: To quantify their response to hypoxia, FURA-incubated islets were loaded into the multimodal device and exposed to 21%, 10%, and 5% oxygen while monitoring their calcium responses. In the GSIR mechanism, the calcium response correlates with insulin secretion, thus a stimulatory glucose pulse will result in a pulse in intracellular calcium. Under 21% oxygen flow, normoxic for ex vivo islets, the calcium responded with standard bi-phasic profile with magnitudes 1.3 times above their baseline, as shown in FIG. 8A. Note that subsequent hypoxic conditions were normalized against this normoxic pulse. When the islets were exposed to 5% hypoxia for 30 minutes (under zero flow), their calcium response lost both pulse magnitude as well as phase information. […] Quantitatively, the pulse height was depressed below 50% of the normoxic pulse, for both 10% and 5% hypoxia.
Islets were incubated in 100 μM diazoxide for 10 minutes and washed in Krebs buffer for 10 minutes prior to hypoxia and glucose stimulation. […] Both mitochondrial hyperpolarization and insulin secretion were improved with diazoxide compared to IH+5HD, as shown in FIG. 10B.
C57BL/6 mice were sacrificed as islet donors for the murine islet experiments. 5 ml collagenase P solution at 0.375 mg/ml in HBSS was prepared for each animal and kept on ice. The animal was euthanized with CO2 and 3% isoflurane followed by cervical dislocation to ensure no discomfort. The animal was disinfected with 70% ethanol before making a V-incision at the genital area and moving the bowel to clearly expose the bile duct. The ampulla on the surface of duodenum was clamped with a hemostat. The pancreas was then distended (inflated) through the bile duct with a 30-gauge needle with 5 ml syringe containing 2 ml of cold collagenase solution, starting at the gall bladder. The pancreas was then removed and placed in a 15 ml tube containing 2 ml of collagenase solution in a 37° C. water bath for 12 minutes. Then, 10 ml of cold HBSS was added to stop the digestion when 80% of the pancreas has disintegrated. […]

[4] = 100 μM diazoxide, 5% hypoxia, FIG. 10B
[5] = 100 μM diazoxide, not statistically significant

SMILES	mitochondrial hyperpolarization with 5HD (islets [1]; IH plus 5HD)	preconditioned insulin response with 5HD (islets [2]; IH plus 5HD)	preconditioning of islets under hypoxia (FURA profile) (islets [3]; IH (1 m/1 m cycle, 60 min total) and 100 μM 5HD simultaneously)	mitochondrial hyperpolarization compared to IH+5HD (islets [1]; [4])	mitochondrial hyperpolarization compared to IH preconditioning alone (islets [1]; [5])	insulin secretion compared to IH+5HD (islets [2]; [4])	insulin response compared to IH preconditioning alone (islets [2]; [5])	preconditioning of islets under hypoxia (glucose calcium response) (islets [3]; 100 μM diazoxide 10 minutes, washed in Krebs buffer 10 minutes prior to 5% hypoxia and glucose stimulation)	calcium response compared to IH preconditioning alone (islets [3]; [5])
CCCCCC(O)CCCC(=O)O (stereo not drawn) [5HD, 5-hydroxydecanoic acid]	decreased mitochondrial hyperpolarization	decoupling of preconditioned insulin response	failed to be preconditioned	–	–	–	–	–	–
CC1=NS(=O)(=O)c2cc(Cl)ccc2N1 [diazoxide]	–	–	–	improved	less than that of IH preconditioning alone	improved	higher average	provided preconditioning benefits	higher average
